Experimental data reported in US7947293B2, “Aqueous pharmaceutical formulation” (Arpida AG, priority 2008, dated 2011).
Read-outs that look alike come from different tables or passages of the source.

How the values were obtained:
Assay type in all cases: physicochemical
[1] = Stability of iclaprim under simulated sterilization conditions at pH<3.5, HPLC; conditions: 30% propylene glycol or 10% glycofurol in water
Experimental: Further stability tests of the above standard formulations were performed, wherein the pH was adjusted with citric acid below 3.5 under simulated sterilization conditions, such as 100° C. for 2 h. Vials of 5-[(2RS)-2-cyclopropyl-7,8-dimethoxy-2H-1-benzopyran-5-ylmethyl]-pyrimidine-2,4-diamine methanesulfonic acid salt were prepared in 30% propylene glycol or 10% glycofurol in water. The pH of the so obtained solution was adjusted to pH 3 with 1M citric acid or to pH 1 with 1N hydrochloric acid, and the vials were heated in order to simulate a sterilization process. The analysis of the solutions after completion of the heating step was performed by means of visual examinations and HPLC measurements.

[2] = Stress heating of standard formulation (simulated long term storage), HPLC; conditions: 20 mg/mL in 30% propylene glycol in water, normal atmosphere
Experimental: Within the scope of the present invention various standard aqueous formulations of 5-[(2RS)-2-cyclopropyl-7,8-dimethoxy-2H-1-benzopyran-5-ylmethyl]-pyrimidine-2,4-diamine and its acid addition salts were tested for long term stability. For example, vials of 5-[(2RS)-2-cyclopropyl-7,8-dimethoxy-2H-1-benzopyran-5-ylmethyl]-pyrimidine-2,4-diamine methanesulfonic acid salt were prepared in 30% propylene glycol in water at a concentration of iclaprim of 20 mg/mL. In order to examine the stability of the above standard formulations a model system was used to simulate long term storage conditions. In this model system, the solutions to be tested are stress heated at 40° C. and 70° C. for at least 12 days. The analysis of the solutions after completion of the heating step were made by means of methods well known to those skilled in the art such as, for example, HPLC measurements. Vials of 5-[(2RS)-2-cyclopropyl-7,8-dimethoxy-2H-1-benzopyran-5-ylmethyl]-pyrimidine-2,4-diamine methanesulfonic acid salt (20 mg/mL) were prepared in 30% propylene glycol in Millipore water under normal atmosphere. In order to examine the stability of the above formulation a model experiment was developed wherein the solutions to be tested are stress heated. It is well know in the art that by heating a test sample at a temperature higher than room temperature (about 20° C.) such as between 40° C. and 70° C. for a prolonged period of time, long storage conditions can be simulated. The analysis of the solutions after completion of the heating step was made by means of visual examinations and HPLC measurements.

[3] = Solubility of iclaprim methanesulfonic acid salt in aqueous/organic solutions, HPLC of supernatant; conditions: for solubility at 24 h: thermodynamic from solid
Experimental: A fixed amount of iclaprim mesylate was suspended in the different aqueous/organic solutions. The suspension was stirred at room temperature for 24 hours. The supernatant of the solutions were analyzed by HPLC to determine the amount of iclaprim in the solution.

Row | % iclaprim ([1]; 1 h, 37° C., pH 1) [%] | % iclaprim ([1]; 2 h, 100° C., pH 1) [%] | % iclaprim ([1]; 2 h, 100° C., pH 3) [%] | % iclaprim ([1]; 3 h, 37° C., pH 1) [%] | % iclaprim ([1]; 3 h, 37° C., pH 3) [%] | % iclaprim ([1]; fresh solution, 0 min, about 20° C., pH 4.5 (reference, no pH adjustment)) [%] | % iclaprim ([2]; 12 days, 40° C.) [%] | % iclaprim ([2]; 12 days, 70° C.) [%] | % iclaprim ([2]; 45 days, about 20° C.) [%] | % iclaprim ([2]; fresh solution, 0 min, about 20° C.) [%] | solubility at 24 h ([3]; 10% propylene glycol in saline 0.9%, aqueous with cosolvent or surfactant or cyclodextrin, 10% (saline 0.9%) propylene glycol, room temperature, 24 hours, read-out: Solubility calculated form HPLC measurements) [mg/mL] | solubility at 24 h ([3]; aqueous with cosolvent or surfactant or cyclodextrin, 10% aqueous propylene glycol, room temperature, 24 hours, read-out: Solubility calculated form HPLC measurements) [mg/mL] | solubility at 24 h ([3]; saline or isotonic, Saline 0.9%, room temperature, 24 hours, read-out: Solubility calculated form HPLC measurements) [mg/mL] | solubility at 24 h ([3]; saline solution with reduced propylene glycol, aqueous with cosolvent or surfactant or cyclodextrin, in saline solution, reduced propylene glycol, pH above 4.0, read-out: maximal solubility achieved) [mg/mL] | concentration at which precipitation was observed ([3]; saline solutions, e.g. 10% propylene glycol saline solution) | solubility at 24 h ([3]; water, room temperature, 24 hours, read-out: Solubility calculated form HPLC measurements) [mg/mL] | Structure (SMILES)
1 | 99.0 | 60.0 | 86.5 | 96.3 | 99.0 | 99.1 | 97.0 | 90.0 | 97.5 | 99.1 | – | – | – | – | – | – | COc1cc(Cc2cnc(N)nc2N)c2c(c1OC)OC(C1CC1)C=C2 (racemic) [iclaprim, 5-[(2RS)-2-cyclopropyl-7,8-dimethoxy-2H-1-benzopyran-5-ylmethyl]-pyrimidine-2,4-diamine]
2 | – | – | – | – | – | – | – | – | – | – | 7.5 | 27.8 | 1.2 | 7.5 | above 7.5 mg/mL | 18.1 | COc1cc(Cc2cnc(N)nc2N)c2c(c1OC)OC(C1CC1)C=C2.CS(=O)(=O)O (racemic) [iclaprim methanesulfonic acid salt, 5-[(2RS)-2-cyclopropyl-7,8-dimethoxy-2H-1-benzopyran-5-ylmethyl]-pyrimidine-2,4-diamine methanesulfonic acid salt]
